Experimental data: PMC10208570, “Peptidomimetic antibiotics disrupt the lipopolysaccharide transport bridge of drug-resistant Enterobacteriaceae” (Science Advances, 2023)
Converted amounts (≈) assume the structure as drawn. Where a SMILES comes first, the peptide text is derived from it. Bridges are numbered along the chain shown (N, C = ends). [ ]: non-standard residue; d: D form. The star is where a group is joined. Val(Nα-amidino) = CC(C)[C@H](NC(=N)N)C(=O)*; Hyp = O=C(O)[C@@H]1C[C@@H](O)CN1; Pen = CC(C)(S)[C@H](N)C(=O)O; dDab = NCC[C@@H](N)C(=O)O; Dab = NCC[C@H](N)C(=O)O

Tests used:
[1] = test system: panel of 121 Enterobacteriaceae including CRE, MDR, and XDR isolates; assay: organism not typed; conditions: for MIC50 (n=121): CLSI microdilution method, 121 isolates
Protocol: (§1) MIC assays [Clinical and Laboratory Standards Institute (CLSI) methodology] and serial passage studies were performed as described by Luther et al. ([6]). […] Resistant mutants were isolated, and their MIC values were determined and sent to Microbes NG (Birmingham, United Kingdom) for whole-genome sequencing and bioinformatic analysis.

[2] = test system: E. coli ATCC 25922 (parent / WT); assay: microbe, parasite or virus in culture; conditions: for MIC E. coli ATCC 25922 Parent: CLSI method, parent strain
In short: (§2)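 First, MICs were measured per CLSI. Next, organisms underwent serial passage. Finally, resistant mutants were isolated, their MICs determined, and whole genomes sequenced with bioinformatic analysis.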

[3] = test system: E. coli ATCC 25922 LptA Q62L mutant; assay: microbe, parasite or virus in culture; conditions: for MIC E. coli ATCC 25922 Q62L mutant: CLSI method, clone harboring LptA Q62L
In short: as §2

[4] = test system: K. pneumoniae NCTC 13443 (NDM-1) LptA Q62L mutant; assay: microbe, parasite or virus in culture; conditions: for MIC K. pneumoniae NCTC 13443 (NDM-1) Q62L mutant: CLSI method, clone harboring LptA Q62L
In short: as §2

[5] = test system: K. pneumoniae ATCC 43816 (parent / WT); assay: microbe, parasite or virus in culture; conditions: ATCC 43816
In short: as §2

[6] = test system: K. pneumoniae NCTC 13443 (NDM-1) (parent / WT); assay: microbe, parasite or virus in culture; conditions: for MIC K. pneumoniae NCTC 13443 (NDM-1) Parent: CLSI method, parent strain
In short: as §2

Enterobacter cloacae = conditions: CLSI microdilution method; LptA sequence identity 86
Protocol: as §1

Providencia stuartii = conditions: CLSI microdilution method; LptA sequence identity 55
Protocol: as §1

Providencia rettgeri = conditions: CLSI microdilution method; LptA sequence identity 54
Protocol: as §1

Hafnia alvei = conditions: CLSI microdilution method; LptA sequence identity 72
Protocol: as §1

Shigella flexneri = conditions: CLSI microdilution method; LptA sequence identity 100
Protocol: as §1

Moraxella catarrhalis = conditions: CLSI microdilution method; LptA sequence identity 28
Protocol: as §1

Klebsiella pneumoniae = conditions: CLSI microdilution method; LptA sequence identity 88
Protocol: as §1

[7] = test system: Stenotrophomonas maltophilia; conditions: CLSI microdilution method; LptA sequence identity 25
Protocol: as §1

Escherichia coli = conditions: CLSI microdilution method; LptA sequence identity 100
Protocol: as §1

Enterobacter aerogenes = conditions: CLSI microdilution method; LptA sequence identity 88
Protocol: as §1

Proteus mirabilis = conditions: CLSI microdilution method; LptA sequence identity 54
Protocol: as §1

Pantoea agglomerans = conditions: CLSI microdilution method; LptA sequence identity 69
Protocol: as §1

Proteus vulgaris = conditions: CLSI microdilution method; LptA sequence identity 55
Protocol: as §1

Klebsiella oxytoca = conditions: CLSI microdilution method; LptA sequence identity 100
Protocol: as §1

[8] = test system: Salmonella enterica subsp. enterica; conditions: CLSI microdilution method; LptA sequence identity 91
Protocol: as §1

Morganella morganii = conditions: CLSI microdilution method; LptA sequence identity 57
Protocol: as §1

Raoultella planticola = conditions: CLSI microdilution method; LptA sequence identity 84
Protocol: as §1

Citrobacter freundii = conditions: CLSI microdilution method; LptA sequence identity 92
Protocol: as §1

Serratia marcescens = conditions: CLSI microdilution method; LptA sequence identity 64
Protocol: as §1

LptAm = target: T1, LptAm (Escherichia coli, UniProt P0ADV1); assay: biochemical; format: binding, E. coli
T1 construct: His6-GB1 (N, cleaved yes); made in house; host or cells: E. coli BL21 (DE3)
T1 sequence (P0ADV1 28-159): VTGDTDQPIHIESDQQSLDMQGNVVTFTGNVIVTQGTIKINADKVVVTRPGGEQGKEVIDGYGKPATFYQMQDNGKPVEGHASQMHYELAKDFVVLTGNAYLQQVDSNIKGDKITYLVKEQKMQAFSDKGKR
Protocol: (§3) Protein stocks were purified and concentrated in buffer 1 [50 mM Na-Pi (pH 7) and 150 mM NaCl] and, if necessary, diluted to desired concentrations using buffer 2 [50 mM Na-Pi (pH 7), 150 mM NaCl, and 0.05% Tween 20]. Peptide stocks and fluorescently labeled peptide stocks were made in buffer 2. Every serial dilution consisted of 24 wells, the first well with the highest concentrate and the last well (well 24) with the lowest. First, 50 μl of buffer 2 was added to the wells 2 to 24 of each serial dilution. Then, 100 μl of concentrated unlabeled peptide/protein in their respective buffers was added to the first well. Fifty microliters were taken from the first well and added to the second well for a 1:1 serial dilution and continued for the 24 wells. […] Plates were covered with adhesive seals and left to incubate overnight at 4°C before FP measurements the next day. Anisotropy was measured using the Tecan Safire2 plate reader using a 10-nm bandwidth and setting the excitation and emission wavelengths to 635 and 670 nm, respectively. The G-factor (G) was also determined empirically as 1.094 for the instrument and included in all the anisotropy calculations.
(§4) For the indirect binding assays, r was calculated in the same manner as the direct binding assays. […] The control was subtracted from r to yield r′. Data were fit to a sigmoidal interpolation model on GraphPad Prism 9, and an IC50 was generated for each unlabeled peptide or protein measured.

LptAmQ62L = target: T2, LptAmQ62L (Escherichia coli, UniProt P0ADV1, Q62L); assay: biochemical; format: binding, E. coli
T2 construct: His6-GB1 (N, cleaved yes); made in house; host or cells: E. coli BL21 (DE3)
T2 sequence (P0ADV1 28-159 Q62L): as the sequence (P0ADV1 28-159) above, with Q35L counted along it
Protocol: as §3, §4

| SMILES | MIC50 (n=121) [1] | MIC E. coli ATCC 25922 Parent [2] | MIC E. coli ATCC 25922 Q62L mutant [3] | MIC K. pneumoniae NCTC 13443 (NDM-1) Q62L mutant [4] | MIC K. pneumoniae ATCC 43816 Parent [5] | MIC K. pneumoniae NCTC 13443 (NDM-1) Parent [6] | MIC Enterobacter cloacae (Enterobacter cloacae) | MIC Providencia stuartii (Providencia stuartii) | MIC Providencia rettgeri (Providencia rettgeri) | MIC Hafnia alvei (Hafnia alvei) | MIC Shigella flexneri (Shigella flexneri) | MIC Moraxella catarrhalis (Moraxella catarrhalis) | MIC Klebsiella pneumoniae (Klebsiella pneumoniae) | MIC Stenotrophomonas maltophilia [7] | MIC Escherichia coli (Escherichia coli) | MIC Enterobacter aerogenes (Enterobacter aerogenes) | MIC Proteus mirabilis (Proteus mirabilis) | MIC Pantoea agglomerans (Pantoea agglomerans) | MIC Proteus vulgaris (Proteus vulgaris) | MIC Klebsiella oxytoca (Klebsiella oxytoca) | further results |
| --- | --- | --- | --- | --- | --- | --- | --- | --- | --- | --- | --- | --- | --- | --- | --- | --- | --- | --- | --- | --- | --- |
| CC[C@H](C)[C@H](NC(=O)[C@@H]1C[C@@H](O)CN1C(=O)[C@@H](N)C(C)C)C(=O)N[C@H](C(=O)N[C@@H](Cc1ccc(O)cc1)C(=O)N[C@@H]1C(=O)N[C@@H](CC(N)=O)C(=O)N[C@@H](CCCNC(=N)N)C(=O)N[C@@H](CCN)C(=O)N[C@@H]([C@@H](C)O)C(=O)N[C@H](CCN)C(=O)N[C@@H](CCCCN)C(=O)N[C@H](C(=O)N[C@@H](CCN)C(=O)N[C@@H](CCCNC(=N)N)C(=O)N[C@@H](Cc2ccc(O)cc2)C(=O)O)CSSC1(C)C)[C@@H](C)O [Compound 6] (H-V[Hyp]ITY[Pen]NR[Dab]T[dDab]KC[Dab]RY-OH; disulfide 6-13) | 0.25 µg/mL (≈ 0.128 µM) | 0.125 micrograms per milliliter | 2 micrograms per milliliter | >8 micrograms per milliliter | 0.25 micrograms per milliliter | 2 micrograms per milliliter | 0.13 µg/mL (≈ 0.0663 µM) | > 8 µg/mL | > 8 µg/mL | 2 µg/mL (≈ 1.02 µM) | 0.03 µg/mL (≈ 0.0153 µM) | > 8 µg/mL | 0.13 µg/mL (≈ 0.0663 µM) | > 8 µg/mL | 0.03 µg/mL (≈ 0.0153 µM) | 0.5 µg/mL (≈ 0.255 µM) | > 8 µg/mL | 4 µg/mL (≈ 2.04 µM) | > 8 µg/mL | 0.25 µg/mL (≈ 0.128 µM) | MIC90 ([1]; panel of 121 Enterobacteriaceae including CRE, MDR, and XDR isolates): 1 µg/mL (≈ 0.51 µM); MIC Salmonella enterica subsp. enterica [8]: 0.5 µg/mL (≈ 0.255 µM); MIC Morganella morganii (Morganella morganii): > 8 µg/mL; MIC Raoultella planticola (Raoultella planticola): 0.06 µg/mL (≈ 0.0306 µM); MIC Citrobacter freundii (Citrobacter freundii): 0.13 µg/mL (≈ 0.0663 µM); MIC Serratia marcescens (Serratia marcescens): > 8 µg/mL; IC50 (LptAm): 16.9 ± 1 nM; Ki (LptAm): 2.8 ± 0.2 nM; IC50 (LptAmQ62L): 14.6 ± 2.5 nM; Ki (LptAmQ62L): 9.9 ± 1.7 nM |
| CC[C@H](C)[C@H](NC(=O)[C@@H]1C[C@@H](O)CN1C(=O)[C@@H](NC(=N)N)C(C)C)C(=O)N[C@H](C(=O)N[C@@H](Cc1ccc(O)cc1)C(=O)N[C@@H]1C(=O)N[C@@H](CC(N)=O)C(=O)N[C@@H](CCCNC(=N)N)C(=O)N[C@@H](CCN)C(=O)N[C@@H]([C@@H](C)O)C(=O)N[C@H](CCN)C(=O)N[C@@H](CCCCN)C(=O)N[C@H](C(=O)N[C@@H](CCN)C(=O)N[C@@H](CCCNC(=N)N)C(=O)N[C@@H](Cc2ccc(O)cc2)C(=O)O)CSSC1(C)C)[C@@H](C)O [Compound 7] ({Val(Nα-amidino)}-[Hyp]ITY[Pen]NR[Dab]T[dDab]KC[Dab]RY-OH; disulfide 5-12) | 0.25 µg/mL (≈ 0.125 µM) | 0.063 micrograms per milliliter | 4 micrograms per milliliter | >8 micrograms per milliliter | 0.125 micrograms per milliliter | 0.5 micrograms per milliliter | 0.5 µg/mL (≈ 0.25 µM) | > 8 µg/mL | > 8 µg/mL | 4 µg/mL (≈ 2 µM) | 0.06 µg/mL (≈ 0.03 µM) | > 8 µg/mL | 0.25 µg/mL (≈ 0.125 µM) | > 8 µg/mL | 0.06 µg/mL (≈ 0.03 µM) | 1 µg/mL (≈ 0.5 µM) | > 8 µg/mL | > 8 µg/mL | > 8 µg/mL | 0.5 µg/mL (≈ 0.25 µM) | MIC Escherichia coli ATCC 25922 WT ([2]; Table S9 panel, WT): 0.125 µg/mL (≈ 0.0625 µM); MIC Escherichia coli ATCC 25922 LptA Q62L (7x) ([3]; Table S9 panel): 2 µg/mL (≈ 0.999 µM); MIC Klebsiella pneumoniae NCTC 13443 LptA Q62L (5x) ([4]; Table S9 panel): > 16 µg/mL; MIC Klebsiella pneumoniae ATCC 43816 WT [5]: 0.25 µg/mL (≈ 0.125 µM); MIC Klebsiella pneumoniae NCTC 13443 WT ([6]; Table S9 panel, WT): 1 µg/mL (≈ 0.5 µM); MIC Salmonella enterica subsp. enterica [8]: 1 µg/mL (≈ 0.5 µM); MIC Morganella morganii (Morganella morganii): > 8 µg/mL; MIC Raoultella planticola (Raoultella planticola): 0.25 µg/mL (≈ 0.125 µM); MIC Citrobacter freundii (Citrobacter freundii): 0.5 µg/mL (≈ 0.25 µM); MIC Serratia marcescens (Serratia marcescens): > 8 µg/mL; IC50 (LptAm): 11.7 ± 0.5 nM; Ki (LptAm): 1.9 ± 0.1 nM; IC50 (LptAmQ62L): 25.4 ± 4.6 nM; Ki (LptAmQ62L): 17.2 ± 3.1 nM |
